What is called EC50 is the concentration giving half of the maximal effect. A low value points to greater potency. As usually defined, the IC50 is the concentration at which inhibition is half-maximal.

For one test, the system named is A549 cells. The experiment in a line: A549 proliferation (viability) assay, Cell Titer Fluor, 72 hours. In kind it is cell-based. The note with it: Homo sapiens. The method, boiled down:
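1000 A549 cells/well, RPMI 1640/10% dialyzed FBS, 24 h attach; compound 72 h, 0.5% DMSO, 37 °C/5% CO2; Cell Titer Fluor fluorescence; EC50 via 4-parameter logistic.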

In test [1] the target is T1, GLS1 (purified recombinant human GAC) (Homo sapiens, UniProt O94925).
T1 sequence (O94925 55-598 isoform O94925-3 limits assumed): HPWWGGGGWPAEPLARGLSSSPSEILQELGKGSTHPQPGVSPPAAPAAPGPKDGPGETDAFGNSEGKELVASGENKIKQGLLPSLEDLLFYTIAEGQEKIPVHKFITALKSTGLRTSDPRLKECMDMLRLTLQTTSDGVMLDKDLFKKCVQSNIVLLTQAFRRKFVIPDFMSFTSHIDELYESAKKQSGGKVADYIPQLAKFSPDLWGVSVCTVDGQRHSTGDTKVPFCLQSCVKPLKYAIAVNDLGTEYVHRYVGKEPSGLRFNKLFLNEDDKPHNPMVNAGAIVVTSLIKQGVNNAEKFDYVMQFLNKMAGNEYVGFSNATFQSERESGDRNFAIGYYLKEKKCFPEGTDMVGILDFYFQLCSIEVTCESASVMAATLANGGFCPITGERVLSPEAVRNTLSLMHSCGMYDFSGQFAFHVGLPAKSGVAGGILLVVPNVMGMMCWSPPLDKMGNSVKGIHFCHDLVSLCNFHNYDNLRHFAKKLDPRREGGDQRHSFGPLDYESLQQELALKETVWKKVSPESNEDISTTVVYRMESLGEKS
The test can be described thus: GLS1 enzymatic activity assay (dual-coupled, Amplex UltraRed/resorufin). The format is biochemical. The method, boiled down: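 In this coupled fluorometric format, phosphate-activated GAC (2 nM, 50 mM phosphate) is pre-exposed to compound for 10 min before 1 mM glutamine addition. Product is tracked as resorufin (530/590 nm) over time or at 20 min, and potency is derived by logistic fitting.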

`O=C(CC1CCS(=O)(=O)CC1)Nc1ccn(CCCCn2cc(C(=O)NCc3cccc(OC(F)(F)F)c3)nn2)c(=O)c1` [Example 179, 1-(4-{4-[2-(1,1-dioxo-1$l^6-thian-4-yl)acetamido]-2-oxo-1,2-dihydropyridin-1-yl}butyl)-N-{[3-(trifluoromethoxy)phenyl]methyl}-1H-1,2,3-triazole-4-carboxamide] returned an EC50 in the test on A549 cells of 500 to 5000 nM. The IC50 in test [1] is less than 100 nM.

In turn, `O=C(CC1CCC1)Nc1cnn(CCC(F)Cn2cc(C(=O)NCc3cc(C(F)(F)F)ccn3)nn2)c(=O)c1` (stereo not drawn) [Example 401, 1-{4-[4-(2-cyclobutylacetamido)-6-oxo-1,6-dihydropyridazin-1-yl]-2-fluorobutyl}-N-{[4-(trifluoromethyl)pyridin-2-yl]methyl}-1H-1,2,3-triazole-4-carboxamide] showed an EC50 in the test with A549 cells of 100 to 500 nM. Further, the IC50 in test [1] is less than 100 nM.

For `O=C(Cc1cscn1)Nc1ccn(CCC(F)Cn2cc(C(=O)NCc3cccc(OC(F)(F)F)c3)nn2)c(=O)c1` (stereo not drawn) [Example 247, 1-(2-fluoro-4-{2-oxo-4-[2-(1,3-thiazol-4-yl)acetamido]-1,2-dihydropyridin-1-yl}butyl)-N-{[3-(trifluoromethoxy)phenyl]methyl}-1H-1,2,3-triazole-4-carboxamide], the EC50 in the test with A549 cells fell in the range of 500 to 5000 nM. Besides, in test [1], the IC50 was less than 100 nM.

Consider `O=C(Cc1ccccc1F)Nc1ccn(CCCCn2cc(C(=O)NCc3cccc(OC(F)(F)F)c3)nn2)c(=O)c1` [Example 55, 1-(4-{4-[2-(2-fluorophenyl)acetamido]-2-oxo-1,2-dihydropyridin-1-yl}butyl)-N-{[3-(trifluoromethoxy)phenyl]methyl}-1H-1,2,3-triazole-4-carboxamide], for which the EC50 in the test on A549 cells lay within 100 to 500 nM. Further, in test [1], the IC50 is less than 100 nM.

`O=C(Nc1ccn(CCC(F)Cn2cc(C(=O)NCc3cccc(OC(F)(F)F)c3)nn2)c(=O)c1F)C(=O)N1CC2(CCC2)C1` (stereo not drawn) [Example 424, 1-{4-[4-(2-{2-azaspiro[3.3]heptan-2-yl}-2-oxoacetamido)-3-fluoro-2-oxo-1,2-dihydropyridin-1-yl]-2-fluorobutyl}-N-{[3-(trifluoromethoxy)phenyl]methyl}-1H-1,2,3-triazole-4-carboxamide]: in the test on A549 cells, the EC50 was in the range of 100 to 500 nM. Moreover, the half-maximal inhibitory concentration (IC50) in test [1] is less than 100 nM.

As to `O=C(Cc1ccccc1)Nc1ccn(CCCCn2cc(C(=O)NCc3cccc(OC(F)(F)F)c3)nn2)c(=O)c1` [Example 33, 1-{4-[2-oxo-4-(2-phenylacetamido)-1,2-dihydropyridin-1-yl]butyl}-N-{[3-(trifluoromethoxy)phenyl]methyl}-1H-1,2,3-triazole-4-carboxamide], in the test with A549 cells, the EC50 was 100 to 500 nM. In test [1], the IC50 was less than 100 nM.

Take `CC(C)(C)OC(=O)Nc1ccn(CCCCn2cc(C(=O)NCc3cccc(OC(F)(F)F)c3)nn2)c(=O)c1` [Example 3, Tert-butyl(2-oxo-1-(4-(4-((3-(trifluoromethoxy)benzyl)carbamoyl)-1H-1,2,3-triazol-1-yl)butyl)-1,2-dihydropyridin-4-yl)carbamate]: in the test with A549 cells, the concentration for a half-maximal effect (EC50) lay in the range of 100 to 500 nM. Further, in test [1], the IC50 is less than 100 nM.

As to `CC(C)(C)OC(=O)N1CCC(CC(=O)Nc2ccn(CCC(F)Cn3cc(C(=O)NCc4cccc(OC(F)(F)F)c4)nn3)c(=O)c2F)CC1` (stereo not drawn) [Example 289, tert-butyl 4-{[(3-fluoro-1-{3-fluoro-4-[4-({[3-(trifluoro-methoxy)phenyl]methyl}carbamoyl)-1H-1,2,3-triazol-1-yl]butyl}-2-oxo-1,2-dihydropyridin-4-yl)carbamoyl]methyl}piperidine-1-carboxylate], the concentration for a half-maximal effect (EC50) in the test with A549 cells is less than 100 nM. In addition, in test [1], the IC50 was less than 100 nM.

In the test with A549 cells, `CNC(=O)c1cn(CCCCn2ccc(NC(=O)Cc3ccccc3)cc2=O)nn1` [Example 32, N-methyl-1-{4-[2-oxo-4-(2-phenylacetamido)-1,2-dihydropyridin-1-yl]butyl}-1H-1,2,3-triazole-4-carboxamide] gave an EC50 greater than 5000 nM. Also, the IC50 in test [1] lay within 500 to 5000 nM.

The values are drawn from US20160002204A1 (Board of Regents, The University of Texas System, priority 2014, published 2016).
